In patent publication US10603357B2, “Therapeutic TREM-1 peptides” (Universite de Lorraine, priority 2004, dated 2020):

B1: IL-10: rIL-10 (500 U/ml, R&D Systems) (protein, UniProt P22301 19-178, looked up)
Interleukin-10: SPGQGTQSENSCTHFPGNLPNMLRDLRDAFSRVKTFFQMKDQLDNLLLKESLLEDFKGYLGCQALSEMIQFYLEEVMPQAENQDPDIKAHVNSLGENLKTLRLRLRRCHRFLPCENKSKAVEQVKNAFNKLQEKGIYKAMSEFDIFINYIEAYMTMKIRN

Assays:
BALB/c mice [1] = assay: LPS-induced endotoxaemia, survival of mice (Example 1); type: in vivo, mouse
Experimental: BALB/c mice (10 per group) were injected intraperitoneally with 200 μg LPS. The TREM-1 peptides P1, P2, P3, or P5 (200 μl of a 300 μM solution per mouse) were injected intraperitoneally 1 hour before LPS. Viability of mice was monitored twice a day for 7 days. Statistical analysis was performed by Logrank test. Data from control mice represent cumulative survival curves from two independent experiments performed under identical conditions.
BALB/c mice (10 per group) were injected intraperitoneally with 200 μg LPS. TREM-1 peptide P1, 200 μl of a 300 μM solution per mouse was injected intraperitoneally 1 hour before or 4 hours after LPS. Viability of mice was monitored twice a day for 7 days. Statistical analysis was performed with the Logrank test. Data from control mice represent cumulative survival curves from two independent experiments performed under identical conditions
BALB/c mice (10 per group) were injected intraperitoneally with 200 μg LPS. P1 peptide, 200 μl of a 150, 300 and 600 μM solution per mouse (dots) or P3, 200 μl of a 600 μM solution per mouse (filled squares) were injected intraperitoneally 4 hours after LPS. Viability of mice was monitored twice a day for 7 days. Statistical analysis was performed with the Logrank test
In the experiments of this example, the peptides were administered in a volume of 200 μl of the solution molarity indicated. To assess the ability of TREM1-peptides to protect mice from LPS-induced endotoxaemia, the Inventors administered peptides P1, P2, P3 and P5 (300 μM) 1 hour before a lethal dose of lipopolysaccharide (LPS) (FIG. 2). Lethality was monitored over time and compared with animals that had received control injections of vehicle alone. P5 injection confers maximal protection, with 90% of the animals still alive 7 days after LPS injection, as compared with 10% of control mice (p<0.001). 60% of the P1-treated mice and 50% of the P2 treated mice survived endotoxaemia as compared with 10% of control mice (p<0.01 and p<0.05 respectively).
In order to investigate whether TREM-1 peptide treatment could be delayed until after the administration of LPS, the Inventors injected the peptides at 4 hours after LPS injection. […] 80% of the mice injected with P1 4 hours after LPS survived endotoxaemia compared to 60% of mice treated 1 h before LPS and 10% of mice treated with vehicle alone (p<0.001 and p<0.01 respectively). Thus, P1 is effective even when injected after the outbreak of endotoxaemia. […] P1 administration conferred maximal protection (80%) when administered at 600 μM (p<0.01) and the level of protection dropped to 50% at 300 μM (p<0.05) and further down to 30% at 150 μM as compared to 20% of control mice, indicating a dose dependent effect of P1 (FIG. 4). The Inventors then investigated whether P1 protects against septic shock in the “CLP” model (Cecal Ligation and Puncture is a widely used experimental model of sepsis). Mice treated with two doses of P1 at 5 and 24 hours after CLP were protected from death as compared to control treated mice (p=0.0791) although the difference was not statistically significant. 40% of the mice injected with P1 at 5 days after CLP survived compared to 5% of mice treated with P3 peptide.

C57BL/6 mice = assay: cecal ligation and puncture (CLP), survival of mice (Example 1); type: in vivo, mouse; conditions: 200 μl of 600 μM i.p. 5 and 24 hours after CLP; 5 days after CLP; 15 per group
Experimental: CLP was induced in C57BL/6 mice (15 per group) as described in Materials and Methods. P1 peptide (empty dots) or P3 peptide (filled squares) (200 μl of a 600 μM solution per mouse) were injected intraperitoneally 5 and 24 hours after CLP induction. Viability of mice was monitored twice a day for 10 days. Statistical analysis was performed with the Logrank test.
In order to investigate whether TREM-1 peptide treatment could be delayed until after the administration of LPS, the Inventors injected the peptides at 4 hours after LPS injection. […] 80% of the mice injected with P1 4 hours after LPS survived endotoxaemia compared to 60% of mice treated 1 h before LPS and 10% of mice treated with vehicle alone (p<0.001 and p<0.01 respectively). Thus, P1 is effective even when injected after the outbreak of endotoxaemia. […] P1 administration conferred maximal protection (80%) when administered at 600 μM (p<0.01) and the level of protection dropped to 50% at 300 μM (p<0.05) and further down to 30% at 150 μM as compared to 20% of control mice, indicating a dose dependent effect of P1 (FIG. 4). The Inventors then investigated whether P1 protects against septic shock in the “CLP” model (Cecal Ligation and Puncture is a widely used experimental model of sepsis). […]

[2] = system: TREM-1/TREM-1 ligand interaction; assay: competition of soluble mouse TREM-1/IgG1 binding to TREM-1 ligand positive peritoneal exudate cells (flow cytometry); conditions: peptides 100 and 500 μM, pre-incubated 45 minutes on ice; 2 μg/ml mouseTREM-1/hIgG1
Experimental: Cytofluorimetric analysis of peritoneal exudate cells with 2 μg/ml of mouseTREM-1/hIgG1 in the presence of a 500 μM solution per mouse (thin line), 100 μM solution per mouse (dotted line) or absence (thick line) of the peptides is shown. The grey histogram represents immunostaining with human IgG1 as a control.
A possible mechanism of action could be the ability of TREM-1 derived peptide to interfere with TREM-1/TREM-1 ligand interaction. To address this question the Inventors performed competition experiments on TREM-1 ligand positive cells: PEC (Peritoneal Exudate Cells) from CLP treated mice.
Peritoneal exudate cells (PEC) from mice suffering from a caecal ligation and puncture (CLP)-induced peritonitis were subjected to flow cytometry analysis after incubation with a PE-conjugated anti-human IgG1 (Jackson Immunoresearch, Bar Harbor, USA). Competition with TREM-1 peptides was performed by pre-incubating cells with the indicated concentrations of peptides for 45 minutes on ice before adding mTREM-1-IgG1.

human monocytes = assay: in vitro stimulation of monocytes: TNF-α, IL-1β and sTREM-1 release; type: cell-based; conditions: P5 or control peptide 10 to 100 ng/mL, rIL-10 500 U/mL; for TNF-α and IL-1β production (release of inflammatory cytokines) in monocyte supernatant: LPS 1 μg/mL or LPS + anti-TREM-1 mAb; for release of sTREM-1 from monocytes cultured with LPS: LPS 1 μg/mL
Experimental: For cell activation, primary monocytes were cultured in 24-well flat-bottom tissue culture plates in the presence of LPS (1 μg/mL). In some experiments this stimulus was provided in combination with P5 (10 to 100 ng/mL), control peptide (10 to 100 ng/mL) or rIL-10 (500 U/mL). To activate monocytes through TREM-1, an agonist anti-TREM-1 mAb (10 μg/mL) was added as indicated. Cell-free supernatants were analysed for production of TNF-α, IL-1β. and sTREM-1 by ELISA or immunodot. All experiments were performed in triplicate and data are expressed as means (SEM). • a: Media • b: P5 10 ng/mL • c: Anti-TREM-1 • d: LPS • e: LPS+Anti-TREM-1 • f: LPS+P5 10 ng/mL • g: LPS+P5 50 ng/mL • h: LPS+P5 100 ng/mL • i: LPS+IL10
Ten mL of peripheral blood samples were collected on EDTA-K from 5 healthy volunteer donors originating from laboratory staff. After dilution in RPMI (Life Technologies, Grand Island, N.Y.) v/v, blood was centrifuged for 30 min at room temperature over a Ficoll gradient (Amersham Pharmacia, Uppsala, Sweden) to isolate PBMC. The cells recovered above the gradient were washed and counted. In order to deplete the suspensions of lymphocytes, cells were then plated in 24-well flat-bottom tissue culture plates (Corning, Corning, N.Y.) at a concentration of 5×10^6/mL and allowed to adhere during 2 hours at 37° C. The resulting lymphocyte suspension was discarded and the adhering monocytic cells were maintained in a 5% CO2 incubator at 37° C. in complete medium (RPMI 1640, 0.1 mM sodium pyruvate, […], 50 μg/mL Streptomycin; Life Technologies) supplemented with 10% FCS (Invitrogen, Cergy, France).
For activation, monocytes were cultured in the presence of E. coli LPS (0111:B4, 1 μg/mL, Sigma-Aldrich, La Verpillière, France). Cell viability was assessed by trypan blue exclusion and by measuring lactate dehydrogenase release. In some experiments, this stimulus was given in combination with TNF-α (5 to 100 ng/mL, R&D Systems, Lille, France), IL-1β (5 to 100 ng/mL, R&D Systems), rIFN-γ (up to 100 U/mL, R&D Systems), rIL-10 (500 U/ml, R&D Systems) or up to 100 ng/mL of P5 or control peptide.
In order to activate monocytes through TREM-1, an anti-TREM-1 agonist monoclonal antibody (R&D Systems) was added as follows: flat-bottom plates were precoated with 10 μg/mL anti-TREM-1 per well. After thorough washing in phosphate buffered saline (PBS), the monocyte suspensions were added at a similar concentration as above. Some experiments were performed in the presence of protease inhibitors (PMSF and Protease Cocktail Inhibitor; Invitrogen). Cell-free supernatants were assayed for the production of TNF-α and IL-1β by ELISA according to the recommendations of the manufacturer (BD Biosciences, San Diego, USA). To address the effect of P5 on NF-κB activity in monocytes, an ELISA-based assay was performed (BD Mercury™ Transfactor Kit, BD Biosciences). Monocytes were cultured for 24 hours in the presence of E. coli LPS (O111:B4, 1 μg/mL), and/or an agonist anti-TREM-1 monoclonal antibody (10 μg/mL), and/or P5 (100 ng/mL). Whole-cell extracts were then prepared and levels of NF-κB p50 and p65 were determined according to the recommendations of the manufacturer. All experiments were performed in triplicate and data are expressed as means (SEM). Identification and Quantitation of sTREM-1 Release
Primary monocytes suspensions were cultured as described above. The cells were treated with E. coli LPS (0111:B4, 1 μg/mL) for 24 hours at 37° C. Cell-conditioned medium was submitted to Western-blotting using an anti-TREM-1 monoclonal antibody (R&D Systems) in order to confirm the presence of 27 kDa material recognized by anti-TREM-1. Soluble TREM-1 levels were measured by assessing the optical intensity of bands on immunodots by means of a reflectance scanner and the Quantity One Quantitation Software (Bio-Rad, Cergy, France) as reported elsewhere (18). […]

BALB/c mice [3] = assay: CLP polymicrobial sepsis model in mice (Example 3); type: in vivo, mouse; conditions: 24 hours after CLP; control peptide, dose not given in table (100 μg in source)
Experimental: Male Balb/C mice (20 to 23 g) were randomly grouped and treated with normal saline (n=14) or the control peptide (n=14, 100 μg) or with P5 (100 μg) in a single infection at HO (n=18), H+4 (n=18) or H+24 (n=18). The last group of mice (n=18) was treated with repeated injections of P5 (100 μg) at H+4, H+8 and H+24.
Mice (n=15 per group) were treated with a single injection of normal saline or 10 μg, 20 μg, 50 μg, 100 μg or 200 μg of P5 at HO after the CLP and monitored for survival.
Mice (5 per group) were killed under anaesthesia at 24 hours after CLP. Bacterial counts in peritoneal lavage fluid and blood were determined and results are expressed as CFU per mL of blood and CFU per mouse for the peritoneal lavage.
Male Balb/C mice (7 to 9 weeks, 20 to 23 g) were anaesthetized by i.p. administration of ketamine and xylazine in 0.2 mL sterile pyrogen-free saline. The caecum was exposed through a 1.0 cm abdominal midline incision and subjected to a ligation of the distal half followed by two punctures with a G21 needle. A small amount of stool was expelled from the punctures to ensure patency. The caecum was replaced into the peritoneal cavity and the abdominal incision closed in two layers. After surgery all mice were injected s.c. with 0.5 ml of physiologic saline solution for fluid resuscitation and s.c. every 12 h with 1.25 mg (i.e. 50 μg/g) of imipenem. The animals were randomly grouped and treated with normal saline (n=14), the control peptide (n=14, 100 μg) or P5 (100 μg) in a single injection at HO (n=18), H+4 (n=18) or H+24 (n=18). The last group of mice (n=18) was treated with repeated injections of P5 (100 μg) at H+4, H+8 and H+24. All treatments were diluted into 500 μl of normal saline and administered i.p. The Inventors next sought to determine the effect of various doses of P5. For this purpose, mice (n=15 per group) were treated with a single injection of normal saline or 10 μg, 20 μg, 50 μg 100 μg or 200 μg of P5 at HO after the CLP and monitored for survival. Five additional animals per group were killed under anaesthesia 24 hours after CLP for the determination of bacterial count and cytokines levels. Peritoneal lavage fluid was obtained using 2 mL RPMI 1640 (Life Technologies) and blood was collected by cardiac puncture. Concentrations of TNF-α and IL-1β in the serum were determined by ELISA (BD Biosciences). For the assessment of bacterial counts, blood and peritoneal lavage fluid were plated in serial log dilutions on tryptic soy supplemented with 5% sheep blood agar plates. After plating, tryptic soy agar plates were incubated at 37° C. aerobically for 24 hours, and anaerobically for 48 hours. Results are expressed as CFU per mL of blood and CFU per mouse for the peritoneal lavage.

| Molecule | inhibition of TREM-1 interaction with its ligand (mTREM-1/IgG1 binding to PEC) [2] | TNF-α and IL-1β production (release of inflammatory cytokines) in monocyte supernatant (human monocytes) | release of sTREM-1 from monocytes cultured with LPS (human monocytes) | other results |
| --- | --- | --- | --- | --- |
| TTTRSLPKPTAVVSSPG [P3] | ineffective | – | – | time within which all treated mice died after LPS injection (BALB/c mice [1]; 200 μl of 300 μM peptide i.p. 1 hour before LPS): ≤ 4 days; mice surviving after CLP (C57BL/6 mice): 5% |
| VIYHPPNDPVVLFHPVRLVVTKG (listed as Mus musculus) [P2] | inhibit TREM-1 interaction with its ligand in a dose dependent manner | – | – | animals alive 7 days after LPS injection (BALB/c mice [1]; 200 μl of 300 μM peptide i.p. 1 hour before 200 μg LPS i.p., 10 mice per group (FIG. 2, 3)): 50% |
| TDSRCVIGLYHPPLQVY [P5sc, reference compound] | – | no action | no action | Serum IL-1β (BALB/c mice [3]): 841 ± 204 pg/mL; Serum TNF-α (BALB/c mice [3]): 105 ± 12 pg/mL; Serum sTREM-1 (BALB/c mice [3]): 52 ± 3 ng/mL |
| B1 | – | totally inhibited | totally inhibited | – |
